Literature values, collected in US20190358249A1, “Injectable Combination Products Of Fosaprepitant And 5-HT3 Blocker” (Navinta III Inc, priority 2018, published 2019).
Entries after “also recorded” stand apart in the source; their conditions may differ. Structures can show the parent of a compound that is named as a salt. Blank lines part the entries; values can stand above or below the compound they belong to.

What was measured:
[1] = system: subjects receiving highly emetogenic cisplatin-based chemotherapy; settings: added to ondansetron and dexamethasone
[2] = 1% w/v in water
[3] = precipitates when the pH is above the range

SMILES: C[C@@H](O[C@H]1OCCN(Cc2n[nH]c(=O)[nH]2)[C@H]1c1ccc(F)cc1)c1cc(C(F)(F)F)cc(C(F)(F)F)c1 [Aprepitant]
solubility in water (in words) (water): very low solubility; also recorded: minimal solubility; also recorded: practically insoluble | protection against CINV [1]: consistently superior protection

solubility in water (in words) (water): good solubility
SMILES: C[C@@H](O[C@H]1OCCN(Cc2nc(O)n(P(=O)(O)O)n2)[C@H]1c1ccc(F)cc1)c1cc(C(F)(F)F)cc(C(F)(F)F)c1 [Fosaprepitant]

pH of a 1% w/v solution in water [2]: about 4.6 | solubility in saline (saline): 0.8% | solubility in water (water): 3.2% | pH above which free base precipitates [3]: 5.7-7
SMILES: Cc1nccn1CC1CCc2c(c3ccccc3n2C)C1=O (stereo not drawn) [Ondansetron]

solubility in aqueous media (across the physiological pH range): very soluble | solubility in water (in words) (water): freely soluble
SMILES: O=C1c2cccc3c2[C@H](CCC3)CN1[C@@H]1CN2CCC1CC2 [Palonosetron Hydrochloride]
